Biological target: T1, BRM (Homo sapiens, UniProt P51531)
T1 construct: In-Cell Western Screen of BRM Degradation in SW1573 Cells; endogenous in cells; host or cells: SW1573
Test: In-cell Western screen of BRM degradation in SW1573 cells (Dmax and DC50)
Type: cell-based
Conditions: BRM degradation, SW1573 cells; for DC50: read-out: DC50; for Dmax: read-out: Dmax (% degraded)
How it was run: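 SW1573 cells were treated overnight (18-20 hours) with compound at 0.1% final DMSO. They were then PFA-fixed, permeabilised with Triton X-100 and immunostained with 800 nm/680 nm secondary antibodies. BRM signal was quantified by LI-COR in-cell Western imaging to derive Dmax and DC50.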

T1 sequence (P51531 whole entry): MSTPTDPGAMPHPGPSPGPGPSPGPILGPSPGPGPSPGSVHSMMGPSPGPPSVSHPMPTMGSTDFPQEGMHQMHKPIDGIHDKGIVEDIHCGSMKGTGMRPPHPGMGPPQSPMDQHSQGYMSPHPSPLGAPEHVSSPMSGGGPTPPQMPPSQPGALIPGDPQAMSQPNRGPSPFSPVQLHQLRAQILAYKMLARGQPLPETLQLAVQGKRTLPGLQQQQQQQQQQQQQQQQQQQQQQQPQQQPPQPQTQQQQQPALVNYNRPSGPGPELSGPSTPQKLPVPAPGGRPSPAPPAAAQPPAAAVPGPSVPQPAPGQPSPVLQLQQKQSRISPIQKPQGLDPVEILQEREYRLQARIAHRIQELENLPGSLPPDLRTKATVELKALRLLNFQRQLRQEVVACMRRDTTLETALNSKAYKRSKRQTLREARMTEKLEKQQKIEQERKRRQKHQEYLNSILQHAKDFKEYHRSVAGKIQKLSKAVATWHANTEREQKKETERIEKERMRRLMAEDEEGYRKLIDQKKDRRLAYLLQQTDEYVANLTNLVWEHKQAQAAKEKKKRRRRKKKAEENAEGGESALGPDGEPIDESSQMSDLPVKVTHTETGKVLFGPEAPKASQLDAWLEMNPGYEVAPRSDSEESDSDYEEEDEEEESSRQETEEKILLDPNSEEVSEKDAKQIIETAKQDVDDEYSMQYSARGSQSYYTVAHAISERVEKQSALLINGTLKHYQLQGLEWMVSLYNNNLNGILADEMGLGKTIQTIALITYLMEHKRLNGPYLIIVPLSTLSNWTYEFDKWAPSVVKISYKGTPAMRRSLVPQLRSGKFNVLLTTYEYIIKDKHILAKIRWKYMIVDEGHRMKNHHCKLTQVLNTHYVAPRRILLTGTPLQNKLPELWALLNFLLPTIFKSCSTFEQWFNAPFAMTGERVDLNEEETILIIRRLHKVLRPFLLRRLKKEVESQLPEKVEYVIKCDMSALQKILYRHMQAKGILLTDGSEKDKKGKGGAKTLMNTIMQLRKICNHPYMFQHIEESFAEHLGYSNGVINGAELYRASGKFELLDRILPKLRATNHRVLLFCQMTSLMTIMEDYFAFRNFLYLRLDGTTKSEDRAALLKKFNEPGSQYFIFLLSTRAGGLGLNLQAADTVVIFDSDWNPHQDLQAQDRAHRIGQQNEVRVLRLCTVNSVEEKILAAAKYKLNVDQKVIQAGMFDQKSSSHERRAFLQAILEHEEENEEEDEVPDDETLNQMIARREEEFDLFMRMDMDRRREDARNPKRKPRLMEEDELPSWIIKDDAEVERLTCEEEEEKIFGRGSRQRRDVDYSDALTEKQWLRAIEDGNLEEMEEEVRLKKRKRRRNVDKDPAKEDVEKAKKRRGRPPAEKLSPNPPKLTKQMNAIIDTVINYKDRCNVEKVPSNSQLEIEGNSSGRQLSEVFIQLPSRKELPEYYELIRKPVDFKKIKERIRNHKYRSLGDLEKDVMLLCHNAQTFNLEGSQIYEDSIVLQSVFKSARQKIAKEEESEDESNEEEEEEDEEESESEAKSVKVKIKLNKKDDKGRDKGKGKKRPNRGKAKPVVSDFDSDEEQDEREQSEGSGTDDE

With `Cc1ncsc1-c1ccc([C@H](CC#N)NC(=O)[C@@H]2C[C@@H](O)CN2C(=O)[C@@H](c2cc(N3CCC(CN4CCC(O[C@H]5C[C@H](Oc6cc(N7C8CCC7CN(c7cc(-c9ccccc9O)nnc7N)C8)ccn6)C5)CC4)CC3)no2)C(C)C)cc1` [compound 671, (2S,4R)-1-((2R)-2-(3-(4-((4-((1r,3r)-3-((4-(3-(3-amino-6-(2-hydroxyphenyl)pyridazin-4-yl)-3,8-diazabicyclo[3.2.1]octan-8-yl)pyridin-2-yl)oxy)cyclobutoxy)piperidin-1-yl)methyl)piperidin-1-yl)isoxazol-5-yl)-3-methylbutanoyl)-N-((S)-2-cyano-1-(4-(4-methylthiazol-5-yl)phenyl)ethyl)-4-hydroxypyrrolidine-2-carboxamide] the DC50 was under 2.5 nM and the Dmax was over 75%.
`Cc1ncsc1-c1ccc([C@H](CCC#N)NC(=O)[C@@H]2C[C@@H](O)CN2C(=O)[C@@H](c2cc(N3CCC(CN4CCC(O[C@H]5C[C@H](Oc6cc(N7C8CCC7CN(c7cc(-c9ccccc9O)nnc7N)C8)ccn6)C5)CC4)CC3)no2)C(C)C)cc1` [compound 672, (2S,4R)-1-((2R)-2-(3-(4-((4-((1r,3r)-3-((4-(3-(3-amino-6-(2-hydroxyphenyl)pyridazin-4-yl)-3,8-diazabicyclo[3.2.1]octan-8-yl)pyridin-2-yl)oxy)cyclobutoxy)piperidin-1-yl)methyl)piperidin-1-yl)isoxazol-5-yl)-3-methylbutanoyl)-N-((S)-3-cyano-1-(4-(4-methylthiazol-5-yl)phenyl)propyl)-4-hydroxypyrrolidine-2-carboxamide] showed a DC50 of under 2.5 nM and a Dmax of over 75%.
`Cc1ncsc1-c1ccc([C@@H](CCC#N)NC(=O)[C@@H]2C[C@@H](O)CN2C(=O)[C@@H](c2cc(N3CCC(CN4CCC(O[C@H]5C[C@H](Oc6cc(N7C8CCC7CN(c7cc(-c9ccccc9O)nnc7N)C8)ccn6)C5)CC4)CC3)no2)C(C)C)cc1` [compound 673, (2S,4R)-1-((2R)-2-(3-(4-((4-((1r,3r)-3-((4-(3-(3-amino-6-(2-hydroxyphenyl)pyridazin-4-yl)-3,8-diazabicyclo[3.2.1]octan-8-yl)pyridin-2-yl)oxy)cyclobutoxy)piperidin-1-yl)methyl)piperidin-1-yl)isoxazol-5-yl)-3-methylbutanoyl)-N-((R)-3-cyano-1-(4-(4-methylthiazol-5-yl)phenyl)propyl)-4-hydroxypyrrolidine-2-carboxamide] was tested, and the DC50 was 10 to 30 nM and the Dmax was 50 to 75%.
`Cc1ncoc1-c1ccc([C@H](C)NC(=O)[C@@H]2C[C@@H](O)CN2C(=O)[C@@H](c2cc(N3CCC(CN4CCC(O[C@H]5C[C@H](Oc6cc(N7C8CCC7CN(c7cc(-c9ccccc9O)nnc7N)C8)ccn6)C5)CC4)CC3)no2)C(C)C)cc1` [compound 674, (2S,4R)-1-((2R)-2-(3-(4-((4-((1r,3r)-3-((4-(3-(3-amino-6-(2-hydroxyphenyl)pyridazin-4-yl)-3,8-diazabicyclo[3.2.1]octan-8-yl)pyridin-2-yl)oxy)cyclobutoxy)piperidin-1-yl)methyl)piperidin-1-yl)isoxazol-5-yl)-3-methylbutanoyl)-4-hydroxy-N-((S)-1-(4-(4-methyloxazol-5-yl)phenyl)ethyl)pyrrolidine-2-carboxamide] was tested, and the DC50 was under 2.5 nM and the Dmax was over 75%.
In the case of `Cc1ncsc1-c1ccc([C@H](C)NC(=O)[C@@H]2C[C@@H](O)CN2C(=O)[C@@H](c2cc(N3CCC(CN4CCC(O[C@H]5C[C@H](Oc6cc(N7C8CCC7CN(c7cc(-c9ccccc9O)nnc7N)C8)ccn6)C5)CC4)CC3)no2)C(C)C)cn1` [compound 675, (2S,4R)-1-((2R)-2-(3-(4-((4-((1r,3r)-3-((4-(3-(3-amino-6-(2-hydroxyphenyl)pyridazin-4-yl)-3,8-diazabicyclo[3.2.1]octan-8-yl)pyridin-2-yl)oxy)cyclobutoxy)piperidin-1-yl)methyl)piperidin-1-yl)isoxazol-5-yl)-3-methylbutanoyl)-4-hydroxy-N-((S)-1-(6-(4-methylthiazol-5-yl)pyridin-3-yl)ethyl)pyrrolidine-2-carboxamide], the DC50 is reported as under 2.5 nM and the Dmax is reported as over 75%.
`Cc1ncsc1-c1ccc([C@H](C)NC(=O)[C@@H]2C[C@@H](O)CN2C(=O)[C@H](c2cc(N3CCC(C#CCN4CCC(Oc5cc(N6C7CCC6CN(c6cc(-c8ccccc8O)nnc6N)C7)ccn5)CC4)CC3)no2)C(C)C)cc1` [compound 676, (2S,4R)-1-((2S)-2-(3-(4-(3-(4-((4-(3-(3-amino-6-(2-hydroxyphenyl)pyridazin-4-yl)-3,8-diazabicyclo[3.2.1]octan-8-yl)pyridin-2-yl)oxy)piperidin-1-yl)prop-1-yn-1-yl)piperidin-1-yl)isoxazol-5-yl)-3-methylbutanoyl)-4-hydroxy-N-((S)-1-(4-(4-methylthiazol-5-yl)phenyl)ethyl)pyrrolidine-2-carboxamide] gave a DC50 of 2.5 to 10 nM and a Dmax of over 75%.
`Cc1ncsc1-c1ccc([C@H](C)NC(=O)[C@@H]2C[C@@H](O)CN2C(=O)[C@@H](c2cc(N3CCC(C#CCN4CCC(Oc5cc(N6C7CCC6CN(c6cc(-c8ccccc8O)nnc6N)C7)ccn5)CC4)CC3)no2)C(C)C)cc1` [compound 677, (2S,4R)-1-((2R)-2-(3-(4-(3-(4-((4-(3-(3-amino-6-(2-hydroxyphenyl)pyridazin-4-yl)-3,8-diazabicyclo[3.2.1]octan-8-yl)pyridin-2-yl)oxy)piperidin-1-yl)prop-1-yn-1-yl)piperidin-1-yl)isoxazol-5-yl)-3-methylbutanoyl)-4-hydroxy-N-((S)-1-(4-(4-methylthiazol-5-yl)phenyl)ethyl)pyrrolidine-2-carboxamide] was tested, and the DC50 was under 2.5 nM and the Dmax was over 75%.
For `C#Cc1ccc([C@H](C)NC(=O)[C@@H]2C[C@@H](O)CN2C(=O)[C@@H](c2cc(N3CCC(CN4CCC(O[C@H]5C[C@H](Oc6cc(N7C8CCC7CN(c7cc(-c9ccccc9O)nnc7N)C8)ccn6)C5)CC4)CC3)no2)C(C)C)cc1` [compound 678, (2S,4R)-1-((2R)-2-(3-(4-((4-((1r,3r)-3-((4-(3-(3-amino-6-(2-hydroxyphenyl)pyridazin-4-yl)-3,8-diazabicyclo[3.2.1]octan-8-yl)pyridin-2-yl)oxy)cyclobutoxy)piperidin-1-yl)methyl)piperidin-1-yl)isoxazol-5-yl)-3-methylbutanoyl)-N-((S)-1-(4-ethynylphenyl)ethyl)-4-hydroxypyrrolidine-2-carboxamide], the DC50 was under 2.5 nM and the Dmax was over 75%.
For `Cc1ncsc1-c1ccc([C@H](C)NC(=O)[C@@H]2C[C@@H](O)CN2C(=O)[C@@H](c2cc(N3CCC(CN4CCC(O[C@H]5C[C@H](Oc6cc(N7C8CCC7CN(c7cc(-c9ccccc9O)nnc7N)C8)ccn6)C5)CC4)CC3)no2)C(C)C)c(F)c1F` [compound 679, (2S,4R)-1-((2R)-2-(3-(4-((4-((1r,3r)-3-((4-(3-(3-amino-6-(2-hydroxyphenyl)pyridazin-4-yl)-3,8-diazabicyclo[3.2.1]octan-8-yl)pyridin-2-yl)oxy)cyclobutoxy)piperidin-1-yl)methyl)piperidin-1-yl)isoxazol-5-yl)-3-methylbutanoyl)-N-((S)-1-(2,3-difluoro-4-(4-methylthiazol-5-yl)phenyl)ethyl)-4-hydroxypyrrolidine-2-carboxamide], the DC50 was under 2.5 nM and the Dmax was over 75%.
`Cc1ncsc1-c1cc(F)c([C@H](C)NC(=O)[C@@H]2C[C@@H](O)CN2C(=O)[C@H](c2cc(N3CCC(CN4CCC(O[C@H]5C[C@H](Oc6cc(N7C8CCC7CN(c7cc(-c9ccccc9O)nnc7N)C8)ccn6)C5)CC4)CC3)no2)C(C)C)cc1F` [compound 680, (2S,4R)-1-((2S)-2-(3-(4-((4-((1r,3r)-3-((4-(3-(3-amino-6-(2-hydroxyphenyl)pyridazin-4-yl)-3,8-diazabicyclo[3.2.1]octan-8-yl)pyridin-2-yl)oxy)cyclobutoxy)piperidin-1-yl)methyl)piperidin-1-yl)isoxazol-5-yl)-3-methylbutanoyl)-N-((S)-1-(2,5-difluoro-4-(4-methylthiazol-5-yl)phenyl)ethyl)-4-hydroxypyrrolidine-2-carboxamide] was tested, and the DC50 was over 30 nM.
`Cc1ncsc1-c1cc(F)c([C@H](C)NC(=O)[C@@H]2C[C@@H](O)CN2C(=O)[C@@H](c2cc(N3CCC(CN4CCC(O[C@H]5C[C@H](Oc6cc(N7C8CCC7CN(c7cc(-c9ccccc9O)nnc7N)C8)ccn6)C5)CC4)CC3)no2)C(C)C)cc1F` [compound 681, (2S,4R)-1-((2R)-2-(3-(4-((4-((1r,3r)-3-((4-(3-(3-amino-6-(2-hydroxyphenyl)pyridazin-4-yl)-3,8-diazabicyclo[3.2.1]octan-8-yl)pyridin-2-yl)oxy)cyclobutoxy)piperidin-1-yl)methyl)piperidin-1-yl)isoxazol-5-yl)-3-methylbutanoyl)-N-((S)-1-(2,5-difluoro-4-(4-methylthiazol-5-yl)phenyl)ethyl)-4-hydroxypyrrolidine-2-carboxamide] showed a DC50 of under 2.5 nM and a Dmax of over 75%.
`Cc1ncsc1-c1ccc([C@H](C)NC(=O)[C@@H]2C[C@@H](O)CN2C(=O)[C@H](c2cc(N3CCC(F)(CN4CCC(O[C@H]5C[C@H](Oc6cc(N7C8CCC7CN(c7cc(-c9ccccc9O)nnc7N)C8)ccn6)C5)CC4)CC3)no2)C(C)C)cc1` [compound 682, (2S,4R)-1-((2S)-2-(3-(4-((4-((1r,3r)-3-((4-(3-(3-amino-6-(2-hydroxyphenyl)pyridazin-4-yl)-3,8-diazabicyclo[3.2.1]octan-8-yl)pyridin-2-yl)oxy)cyclobutoxy)piperidin-1-yl)methyl)-4-fluoropiperidin-1-yl)isoxazol-5-yl)-3-methylbutanoyl)-4-hydroxy-N-((S)-1-(4-(4-methylthiazol-5-yl)phenyl)ethyl)pyrrolidine-2-carboxamide] gave a DC50 of 2.5 to 10 nM and a Dmax of over 75%.

Source: patent US12539292B2, “BRM targeting compounds and associated methods of use” (Arvinas Operations, Inc., priority 2018, dated 2026)
